Laboratory results from US12630565B2, “DNA-dependent protein kinase inhibitor” (DIZAL (JIANGSU) PHARMACEUTICAL CO., LTD., priority 2019, dated 2026).

Assays:
[1] = target: Full length human DNAPK protein (Homo sapiens, UniProt P78527); experiment: DNA-PK enzymatic assay (TR-FRET); format: biochemical; settings: 10 μM ATP, 1.6 μM peptide substrate
Rat hepatocyte = experiment: Metabolic stability assay (rat hepatocyte Clint); format: in vitro ADME; settings: 1 μM compound, cryopreserved hepatocytes 1 million cells per mL
Procedure, shortened: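 Compound at 1 μM incubated with cryopreserved rat hepatocytes, 1 million cells/mL, sampled 0–120 min with acetonitrile quench and LC-MS/MS quantitation. CLint (μL/min/E6) derived from elimination rate constant and half-life of parent disappearance, scaled by cell concentration.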

[2] = Metabolic stability assay (human microsomal Clint); format: in vitro ADME; settings: 1 mg/mL microsomes, 1 mM NADPH, 37° C.; for Human liver microsomal CLint: 1 μM compound; for microsomal CLint at 1 μM: human, pooled human liver microsomes, pH 7.4, 1 μM compound
Procedure, shortened: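 Compound (1 μM) incubated at 37 °C with pooled human liver microsomes (1 mg/mL) and 1 mM NADPH in 100 mM phosphate, pH 7.4. Samples quenched in acetonitrile at 0–30 min and analysed by LC-MS/MS for parent loss. CLint reported in μl/min/mg.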

[3] = system: MDCKII-MDR1-BCRP cell monolayers; experiment: MDCKII-MDR1-BCRP efflux assay; format: in vitro ADME; settings: 5 μM compound, 120 min, HBSS pH 7.4
Procedure, shortened: (§1)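 Bidirectional (A-B, B-A) transport of 5 μM compound across MDCKII-MDR1-BCRP monolayers in HBSS, 25 mM HEPES pH 7.4, ~37° C. for 120 min, triplicate; donor and receiver concentrations measured, monolayer integrity checked with Lucifer yellow. Papp and efflux ratio calculated.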

[4] = Brain-blood-barrier penetration assay (short oral absorption model, Kp,uu); format: in vivo; settings: male, Han Wistar, rat, brain and plasma, po, 10 mg/kg, male Han Wistar rats, oral 10 mg/kg in 1% methylcellulose; AUC(brain)/AUC(plasma)×(fu,brain/fu.plasma)
Method: It is believed that Kp,uu, the relationship between concentrations of unbound drug in brain and in plasma, is the key to prediction of CNS action and should be the main parameter measured and optimized for in drug discovery (Di L et al., Journal of Medicinal Chemistry [2013], 56: 2-12).
In vitro plasma and brain binding assay was carried out by using equilibrium dialysis method with semi-permeable membrane. Plasma and diluted brain homogenate (1:4 with DPBS pH7.4) were spiked with 5 μM test compound (in triplicate) and dialyzed against equal volume of 150 μL 100 mM PBS buffer (pH7.4) at 37° C. for 18 hours in a slowly rotated plate. At the end of incubation, a 50 μL aliquot from the receiver side and a 5 μL from the donor chamber were taken. The 5 μL sample was further diluted with 45 μL of blank plasma or brain homogenate. Paired samples were matrix-matched with either buffer or blank plasma/brain homogenate and mixed for 2 min, and then precipitated with 150 μL cold acetonitrile with 100 ng/mL tolbutamide as internal standard. After centrifuging at 4000 rpm for 20 min, supernatant was diluted with 0.1% formic acid aqueous solution and analyzed for LC/MS/MS (API 4000, Applied Biosystems, Foster City). Unbound fraction (fu) of test compound in the brain homogenate and diluted plasma were calculated by the ratio of the buffer side response to the brain homogenate/plasma side response, and unbound fraction (fu,pl and fu,br) of test compound in non-diluted plasma and tissue were calculated from measured fu in homogenate and plasma with the following equation: fu,bl (fu,br)=(1/D)/[(1/fu−1)+1/D)]. D is dilution factor.
A Short oral absorption (SOA) model is an in-vivo screening model to identify brain penetration of a compound. Six male Han Wistar rats purchased from Beijing Vital River were orally dosed with the compound at 10 mg/kg in 1% methylcellulose At 0.5, 1, 2, 4, 7 and 16 hour post-dose, cerebral spinal fluid (CSF) was collected from cisterna magna. Plasma samples will be processed for plasma by centrifugation at approximately 4° C., 3,000 g within half an hour of collection. Plasma samples will be removed to a labeled tube and stored at −80 degree until analysis. Brain tissue was harvested and homogenized in 3× volume of 100 mM phosphate buffered saline (pH7.4). All samples were stored at ˜−70° C. prior to LC/MS/MS analysis.
Standards were prepared by spiking blank plasma, brain homogenate and artificial CSF covering 0.5 to 500 ng/mL. Homogenized brain tissue along with plasma samples were precipitated by adding 3-fold volume of cold acetonitrile containing internal standard (40 ng/mL Dexamethasone and 40 ng/mL Diclofenac), and 10 μL of CSF samples were precipitated with 100 μL of cold acetonitrile containing internal standard. After 2 min vortex and 5 min centrifugation at 14,000 rpm, supernatant was analyzed by LC/MS/MS (API 4000, Applied Biosystems, Foster City). Two sets of standard curves were run at the beginning and end of each batch from plasma sample analysis. For brain and CSF samples, one standard curve was analyzed along with test samples.
Total brain levels, expressed as brain/plasma ratio (Kp) were measured by AUCbrain/AUCplasma in rodents after oral administration. Free fraction of test compound in biological matrix was determined by in vitro plasma and brain binding assay. Kp,uu was calculated by the following equation: Kp,uu=AUC (brain)/AUC (plasma)×(fu,brain/fu.plasma).

MDR1, BCRP = experiment: MDCKII-MDR1-BCRP efflux assay; format: in vitro ADME; settings: dog, pH 7.4, 5 μM compound, HBSS pH 7.4, read-out: MDCK-Mdr1-BCRP efflux ratio
Procedure, shortened: as §1

Row | IC50 [1] [nM] | Rat hepatocyte CLint (μl/min/10^−6 cells) (Rat hepatocyte) | Human liver microsomal CLint [2] [µL/min/mg] | MDCK-Mdr1-BCRP efflux ratio [3] | Kp uu [4] | microsomal CLint at 1 μM [2] [µL/min/mg] | efflux ratio at 120 min, 5 μM (MDR1, BCRP) | Structure (SMILES)
1 | 1.2 | 12.7 | 31.4 | 3.5 | 0.24 | – | – | Cc1cc2ncnn2cc1Nc1ncc2c(C)nn(C3CCCOCC3)c2n1 (single isomer, unassigned) [Example 34, 3-methyl-N-(7-methyl-[1,2,4]triazolo[1,5-a]pyridin-6-yl)-1-(oxepan-4-yl)-1H-pyrazolo[3,4-d]pyrimidin-6-amine]
2 | 1.8 | 17.4 | 64.8 | 1.7 | 0.25 | – | – | COC1CCC(n2nc(C)c3cnc(Nc4cn5ncnc5cc4C)nc32)C1 (single isomer, unassigned) [Example 110, 1-(3-methoxycyclopentyl)-3-methyl-N-(7-methyl-[1,2,4]triazolo[1,5-a]pyridin-6-yl)-1H-pyrazolo[3,4-d]pyrimidin-6-amine]
3 | 3.2 | 8.2 | 60.5 | 4 | – | – | – | Cc1cc2ncnn2cc1Nc1ncc2c(C)nn(C3CCOCC3C)c2n1 (single isomer, unassigned) [Example 113, 3-methyl-N-(7-methyl-[1,2,4]triazolo[1,5-a]pyridin-6-yl)-1-(3-methyltetrahydro-2H-pyran-4-yl)-1H-pyrazolo[3,4-d]pyrimidin-6-amine]
4 | 1.7 | 8.5 | 50.4 | 2 | – | – | – | Cc1cc2ncnn2cc1Nc1ncc2c(C)nn(C3CCOCC3C)c2n1 (single isomer, unassigned) [Example 114, 3-methyl-N-(7-methyl-[1,2,4]triazolo[1,5-a]pyridin-6-yl)-1-(3-methyltetrahydro-2H-pyran-4-yl)-1H-pyrazolo[3,4-d]pyrimidin-6-amine]
5 | 1.9 | 7.7 | 53.5 | 2 | – | – | – | Cc1cc2ncnn2cc1Nc1ncc2c(C)nn(C3CCOCC3C)c2n1 (single isomer, unassigned) [Example 115, 3-methyl-N-(7-methyl-[1,2,4]triazolo[1,5-a]pyridin-6-yl)-1-(3-methyltetrahydro-2H-pyran-4-yl)-1H-pyrazolo[3,4-d]pyrimidin-6-amine]
6 | 1.8 | 9.1 | 50.4 | 1.8 | – | – | – | Cc1cc2ncnn2cc1Nc1ncc2c(C)nn(C3CCOC(C)(C)C3)c2n1 (single isomer, unassigned) [Example 117, 1-(2,2-dimethyltetrahydro-2H-pyran-4-yl)-3-methyl-N-(7-methyl-[1,2,4]triazolo[1,5-a]pyridin-6-yl)-1H-pyrazolo[3,4-d]pyrimidin-6-amine]
7 | 0.8 | 5.4 | – | – | 0.17 | 19.8 | 5.9 | Cc1cc2ncnn2cc1Nc1ncc2c(n1)c(C1CCOCC1)nn2C [Example 1, 1-methyl-N-(7-methyl-[1,2,4]triazolo[1,5-a]pyridin-6-yl)-3-(tetrahydro-2H-pyran-4-yl)-1H-pyrazolo[4,3-d]pyrimidin-5-amine]
8 | 1.4 | 3.0 | – | – | 0.14 | 12.7 | 3.3 | Cc1cc2nccn2cc1Nc1ncc2c(n1)c(C1CCOCC1)nn2C [Example 2, 1-methyl-N-(7-methylimidazo[1,2-a]pyridin-6-yl)-3-(tetrahydro-2H-pyran-4-yl)-1H-pyrazolo[4,3-d]pyrimidin-5-amine]
9 | 0.8 | 7.5 | – | – | 0.1 | 75.1 | 2.3 | CO[C@H]1CC[C@H](c2nn(C)c3cnc(Nc4cn5ncnc5cc4C)nc32)CC1 [Example 7, 3-((1r,4r)-4-methoxycyclohexyl)-1-methyl-N-(7-methyl-[1,2,4]triazolo[1,5-a]pyridin-6-yl)-1H-pyrazolo[4,3-d]pyrimidin-5-amine]
10 | 1.4 | 10.0 | – | – | 0.08 | 102 | 1.3 | Cc1cc2ncnn2cc1Nc1ncc2c(C)nn(C3CCC(F)(F)CC3)c2n1 [Example 21, 1-(4,4-difluorocyclohexyl)-3-methyl-N-(7-methyl-[1,2,4]triazolo[1,5-a]pyridin-6-yl)-1H-pyrazolo[3,4-d]pyrimidin-6-amine]
11 | 0.4 | 5.5 | – | – | 0.1 | 72.3 | 1.4 | CO[C@H]1CC[C@H](n2nc(C)c3cnc(Nc4cn5ncnc5cc4C)nc32)CC1 [Example 24, 1-((1r,4r)-4-methoxycyclohexyl)-3-methyl-N-(7-methyl-[1,2,4]triazolo[1,5-a]pyridin-6-yl)-1H-pyrazolo[3,4-d]pyrimidin-6-amine]
12 | 0.9 | 17.6 | – | – | 0.19 | 68.9 | 2.1 | Cc1cc2ncnn2cc1Nc1ncc2c(C)nn([C@H]3C[C@H]4CC[C@@H](C3)O4)c2n1 [Example 106, 1-((1R,3r,5S)-8-oxabicyclo[3.2.1]octan-3-yl)-3-methyl-N-(7-methyl-[1,2,4]triazolo[1,5-a]pyridin-6-yl)-1H-pyrazolo[3,4-d]pyrimidin-6-amine]
13 | 1.3 | 4.5 | – | – | 0.3 | 13.9 | 2.7 | Cc1cc2ncnn2cc1Nc1ncc2c(C)nn([C@@H]3C[C@H]4CC[C@@H](C3)O4)c2n1 [Example 107, 1-((1R,3s,5S)-8-oxabicyclo[3.2.1]octan-3-yl)-3-methyl-N-(7-methyl-[1,2,4]triazolo[1,5-a]pyridin-6-yl)-1H-pyrazolo[3,4-d]pyrimidin-6-amine]
